± gives the expanded uncertainty stated by the source.
Settings: 101 kPa, Liquid mixture 1

Structure (SMILES) | interfacial tension (293.2 K, Drop weight) | interfacial tension (298.2 K, Drop weight) | interfacial tension (303.2 K, Drop weight) | interfacial tension (308.2 K, Drop weight) | interfacial tension (313.2 K, Drop weight) | interfacial tension (318.2 K, Drop weight) | interfacial tension (323.2 K, Drop weight) | interfacial tension (328.2 K, Drop weight) | interfacial tension (333.2 K, Drop weight) | interfacial tension (343.2 K, Drop weight) | interfacial tension (338.2 K, Drop weight) | interfacial tension (293.2 K) | interfacial tension (298.2 K) | interfacial tension (303.2 K) | interfacial tension (313.2 K) | interfacial tension (323.2 K) | interfacial tension (333.2 K) | interfacial tension (343.2 K)
c1ccccc1 [benzene] + O | 34.82 ± 0.33 mN/m | 34.06 ± 0.33 mN/m | 33.64 ± 0.32 mN/m | 32.87 ± 0.32 mN/m | 32.1 ± 0.31 mN/m | 31.62 ± 0.31 mN/m | 30.95 ± 0.3 mN/m | 30.92 ± 0.3 mN/m | 30.52 ± 0.3 mN/m |  |  |  |  |  |  |  |  | 
CCCCCCCO [heptan-1-ol] + O | 6.37 ± 0.12 mN/m | 6.44 ± 0.12 mN/m | 6.52 ± 0.12 mN/m |  | 6.6 ± 0.12 mN/m |  | 6.62 ± 0.12 mN/m |  | 6.58 ± 0.12 mN/m | 6.46 ± 0.12 mN/m |  |  |  |  |  |  |  | 
CCCCCCC [heptane] + O | 51.3 ± 0.46 mN/m | 50.87 ± 0.46 mN/m | 50.35 ± 0.45 mN/m | 49.84 ± 0.45 mN/m | 49.6 ± 0.45 mN/m | 49 ± 0.44 mN/m | 48.54 ± 0.44 mN/m | 48.1 ± 0.44 mN/m | 47.73 ± 0.43 mN/m | 46.7 ± 0.42 mN/m | 47.28 ± 0.43 mN/m |  |  |  |  |  |  | 
CCCCCCO [hexan-1-ol] + O | 7.37 ± 0.12 mN/m | 7.49 ± 0.13 mN/m | 7.6 ± 0.13 mN/m |  | 7.7 ± 0.13 mN/m |  | 7.86 ± 0.13 mN/m |  | 7.9 ± 0.13 mN/m | 7.87 ± 0.13 mN/m |  |  |  |  |  |  |  | 
CCCCCC [hexane] + O | 50.81 ± 0.46 mN/m | 50.49 ± 0.45 mN/m | 50.11 ± 0.45 mN/m | 49.68 ± 0.45 mN/m | 49.28 ± 0.44 mN/m | 48.84 ± 0.44 mN/m | 48.46 ± 0.44 mN/m | 47.94 ± 0.43 mN/m | 46.92 ± 0.43 mN/m |  |  |  |  |  |  |  |  | 

Next, values leading:

interfacial tension (293.2 K, Drop weight) | interfacial tension (298.2 K, Drop weight) | interfacial tension (303.2 K, Drop weight) | interfacial tension (308.2 K, Drop weight) | interfacial tension (313.2 K, Drop weight) | interfacial tension (318.2 K, Drop weight) | interfacial tension (323.2 K, Drop weight) | interfacial tension (328.2 K, Drop weight) | interfacial tension (333.2 K, Drop weight) | interfacial tension (343.2 K, Drop weight) | interfacial tension (338.2 K, Drop weight) | interfacial tension (293.2 K) | interfacial tension (298.2 K) | interfacial tension (303.2 K) | interfacial tension (313.2 K) | interfacial tension (323.2 K) | interfacial tension (333.2 K) | interfacial tension (343.2 K) | Structure (SMILES)
 |  |  |  |  |  |  |  |  |  |  | 8.18 ± 0.25 mN/m | 8.48 ± 0.26 mN/m | 9 ± 0.26 mN/m | 9.15 ± 0.27 mN/m | 9.86 ± 0.28 mN/m | 9.67 ± 0.27 mN/m | 9.72 ± 0.27 mN/m | CCCCCCCCCO [nonan-1-ol] + O
51.95 ± 0.46 mN/m | 51.54 ± 0.46 mN/m | 51.11 ± 0.46 mN/m | 50.68 ± 0.46 mN/m | 50.23 ± 0.45 mN/m | 49.63 ± 0.45 mN/m | 49.09 ± 0.44 mN/m | 48.46 ± 0.44 mN/m | 48.03 ± 0.43 mN/m | 46.96 ± 0.43 mN/m | 47.61 ± 0.43 mN/m |  |  |  |  |  |  |  | CCCCCCCCC [nonane] + O
8.02 ± 0.13 mN/m | 8.19 ± 0.13 mN/m | 8.42 ± 0.13 mN/m |  | 8.62 ± 0.13 mN/m |  | 8.83 ± 0.13 mN/m |  | 9.02 ± 0.13 mN/m | 9.02 ± 0.13 mN/m |  |  |  |  |  |  |  |  | CCCCCCCCO [octan-1-ol] + O
51.67 ± 0.46 mN/m | 51.2 ± 0.46 mN/m | 50.78 ± 0.46 mN/m | 50.28 ± 0.45 mN/m | 49.9 ± 0.45 mN/m | 49.31 ± 0.44 mN/m | 48.86 ± 0.44 mN/m | 48.34 ± 0.44 mN/m | 47.81 ± 0.43 mN/m | 46.82 ± 0.43 mN/m | 47.33 ± 0.43 mN/m |  |  |  |  |  |  |  | CCCCCCCC [octane] + O

From the NIST ThermoML archive (doi:10.1021/je500450w)
